Laboratory results reported in US8290713B2, “Method for predicting protein aggregation and designing aggregation inhibitors” (Lonza Biologics PLLC, priority 2006, dated 2012).

Molecular target: ASYN (α-synuclein) (Homo sapiens, UniProt P37840)
Assay: ASYN aggregation assay in TBS monitored by thioflavin T fluorescence
Type: biochemical
Conditions: 50 μM ASYN, 100 μM inhibitor, 50 mM tris, 150 mM NaCl, 20 μM Thioflavin T, 37 C with shaking, 48 hours; sigmoidal fit
Method: All peptides were tested for inhibition of ASYN aggregation in TBS by carrying out aggregation assays with 50 μM ASYN and 100 μM inhibitor with 50 mM tris and 150 mM NaCl and 20 μM Thioflavin T. The reaction volume was 200 μL. Each reaction was set up in a 96 well polypropylene plate with ASYN only and buffer only controls. The reactions were incubated at 37 C with shaking for 48 hours and aggregation was monitored by reading thioflavin T fluorescence.
The kinetic traces were fitted using Zyentiafit software which fits the data to a Sigmoidal function f(x)=k+A/(1+exp(−b(t−t0))) from which the lag time, rate of aggregation and total change in ThT fluorescence may be calculated.

Ac-hpviva-NH2 [ZP-0164]
% decrease in ThT fluorescence: 3.7% | % decrease in rate of aggregation: −2.3% | % increase in Lag phase: 43.0%
